What all share (type): cell-based
The target of experiment [1] is T1, GLP-1 receptor (Homo sapiens, UniProt P43220). Description: PathHunter β-arrestin assay, GLP-1 receptor. More on the design: host or cells: PathHunter CHO-K1 GLP1R β-Arrestin Cell Line. The settings on record: β-arrestin-2 recruitment, PathHunter CHO-K1 GLP1R β-Arrestin Cell Line, 90 min at 37° C.; normalized to GLP-1; read-out: GLP-1R β Arrestin EC50.
The target in experiment [2] is T2, GIP receptor (Homo sapiens, UniProt P48546).
T2 sequence (P48546 22-466): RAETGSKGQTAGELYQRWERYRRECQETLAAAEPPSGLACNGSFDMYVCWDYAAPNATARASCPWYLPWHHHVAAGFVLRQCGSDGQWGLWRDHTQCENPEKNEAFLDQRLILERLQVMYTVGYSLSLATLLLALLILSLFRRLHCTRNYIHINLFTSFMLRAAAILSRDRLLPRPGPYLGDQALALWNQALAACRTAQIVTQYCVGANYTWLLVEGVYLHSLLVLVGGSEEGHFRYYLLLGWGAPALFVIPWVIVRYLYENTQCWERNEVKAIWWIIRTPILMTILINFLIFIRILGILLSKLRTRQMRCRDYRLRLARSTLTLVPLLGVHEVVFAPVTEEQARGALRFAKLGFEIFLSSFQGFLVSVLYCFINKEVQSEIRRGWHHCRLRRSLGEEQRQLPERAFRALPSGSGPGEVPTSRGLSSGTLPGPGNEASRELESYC
Description: PathHunter β-arrestin assay, GIP receptor. More on the design: host or cells: PathHunter CHO-K1 GIPR β-Arrestin Cell Line. The settings on record: β-arrestin-2 recruitment, PathHunter CHO-K1 GIPR β-Arrestin Cell Line, 90 min at 37° C.; normalized to GIP; read-out: GIPR β Arrestin EC50.

Experiment [3] concerns the target T2, GIP receptor. Description: HitHunter cAMP assay, GIP receptor. The settings on record: for EC50: CHO cells stably expressing GIP receptor, cAMP accumulation, 30 min, read-out: EC50 GIP-1R; for Emax: CHO cells, cAMP, normalized to maximum signal from GIP (high) and DMSO (low), read-out: Emax GIP-1R.
Description: (§1) CAMP accumulation was measured in Chinese hamster ovary (CHO) cells stably expressing the human GLP-1 receptor or GIP receptor using the HitHunter CAMP Assay for Small Molecules Kit (Eurofins). Briefly, cells were grown in Ham's F12 Nutrient Mix with 10% FBS and lifted with Cell dissociation buffer, Enzyme free, PBS based (ThermoFisher). Cells were pelleted and resuspended in Hank's buffered saline solution with 10 mM Hepes and 625 μM 3-isobutyl-1-methylxanthine. The antibody reagent was then added to cells at a 1:2 ratio and 5 μL of mixture was seeded in 384-well small volume white assay plates, at 10,000 cells/well. Cells were then treated with 50 nl compound in DMSO using an ECHO 550 acoustic dispenser (Labcyte) in a 20-point dose response format in triplicate for 30 min. Cells were the lysed and detection reagents added according to the manufacturer's protocol. After overnight incubation, luminescence was measured using a Perkin Elmer Envision plate reader. Raw data was normalized to the maximum signal from GLP-1 or GIP (high) and DMSO (low). Dose response curves were analyzed using GraphPad Prism 9.0.
The target in experiment [4] is T1, GLP-1 receptor. In words: HitHunter cAMP assay, GLP-1 receptor. The conditions noted are these: for EC50: CHO cells stably expressing human GLP-1 receptor, cAMP accumulation, 30 min, read-out: EC50 GLP-1R; for Emax: CHO cells, cAMP, normalized to maximum signal from GLP-1 (high) and DMSO (low), read-out: Emax GLP-1R.
Description: as §1

*1 amine or outer side, *2 acyl side, *3 side chain or, on linkers, in order; H or OH if unused. Where a SMILES comes first, the peptide text is derived from it. Side-chain parts run from the residue outwards. [ ]: non-standard residue; d: D form. The star is where a group is joined. Isobutyryl(2-(3-CN-5-F-Ph)) = CC(C)(C(=O)*)c1cc(F)cc(C#N)c1; Azetidine3carboxylic = O=C(C1CN([*:1])C1)[*:2]; C20 diacid = O=C(O)CCCCCCCCCCCCCCCCCCC(=O)*; γGlu = O=C(O)[C@H](CCC(=O)[*:2])N[*:1]; X57 = CO[C@@H](CN[*:1])C(=O)[*:2]; X13 = CC(C)(C(=O)*)c1cccc(F)c1F; AEEA = NCCOCCOCC(=O)O; Aib = CC(C)(N)C(=O)O; CO = O=C([*:1])[*:2]; βAla = NCCC(=O)O; NHPr = CCCN*

T1 sequence (P43220 24-463): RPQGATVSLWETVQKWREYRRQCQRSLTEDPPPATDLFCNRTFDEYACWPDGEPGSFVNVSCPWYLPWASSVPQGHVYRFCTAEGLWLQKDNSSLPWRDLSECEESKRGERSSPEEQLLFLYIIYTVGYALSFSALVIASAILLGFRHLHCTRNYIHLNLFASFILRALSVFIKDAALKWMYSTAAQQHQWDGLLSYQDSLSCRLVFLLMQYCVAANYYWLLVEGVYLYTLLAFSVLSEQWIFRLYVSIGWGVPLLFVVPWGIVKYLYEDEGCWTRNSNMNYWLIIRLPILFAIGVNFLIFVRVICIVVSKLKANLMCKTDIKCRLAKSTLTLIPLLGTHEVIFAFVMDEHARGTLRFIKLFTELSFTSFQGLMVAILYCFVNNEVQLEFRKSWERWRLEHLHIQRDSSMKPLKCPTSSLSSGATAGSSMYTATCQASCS

With `CC[C@H](C)[C@H](NC(=O)[C@H](CC(C)C)NC(=O)[C@H](Cc1c[nH]c2ccccc12)NC(=O)[C@H](CCC(N)=O)NC(=O)[C@@H](NC(=O)[C@H](Cc1ccccc1)NC(=O)[C@H](C)NC(=O)[C@H](CCCCNC(=O)COCCOCCNC(=O)COCCOCCNC(=O)CC[C@H](NC(=O)CCCCCCCCCCCCCCCCCCC(=O)O)C(=O)O)NC(=O)[C@H](CCC(N)=O)NC(=O)[C@H](C)NC(=O)[C@@H](NC(=O)[C@H](CCCCN)NC(=O)[C@H](CC(=O)O)NC(=O)[C@H](CC(C)C)NC(=O)C(C)(C)NC(=O)[C@@H](NC(=O)[C@H](CO)NC(=O)[C@H](Cc1ccc(O)cc1)NC(=O)[C@H](CC(=O)O)NC(=O)[C@H](CO)NC(=O)[C@@H](NC(=O)[C@H](Cc1ccccc1)NC(=O)[C@@H](NC(=O)CNC(=O)[C@H](CCC(=O)O)NC(=O)C1CN(C(=O)C(C)(C)c2cc(F)cc(C#N)c2)C1)[C@@H](C)O)[C@@H](C)O)[C@@H](C)CC)[C@@H](C)CC)C(C)C)C(=O)N[C@@H](C)C(=O)NCC(=O)NCC(=O)N1CCC[C@H]1C(=O)N[C@@H](CO)C(=O)N[C@@H](CO)C(=O)NCC(=O)N[C@@H](C)C(=O)N1CCC[C@H]1C(=O)N1CCC[C@H]1C(=O)N1CCC[C@H]1C(=O)N[C@@H](CO)C(N)=O` [Compound 213] ({Isobutyryl(2-(3-CN-5-F-Ph))}-[Azetidine3carboxylic]EGTFTSDYSI[Aib]LDKIAQK([AEEA-AEEA-γGlu-C20 diacid])AFVQWLIAGGPSSGAPPPS-NH2), the EC50 was greater than 1000 nM at GLP-1 receptor [1], greater than 1000 nM on GIP receptor [2], 100 to 1000 nM at GIP receptor [3] and 100 to 1000 nM on GLP-1 receptor [4]. The maximal response (Emax) came out at 92% at GIP receptor [3] and 78% on GLP-1 receptor [4].
For the molecule `CCCNC(=O)NC(C)(C)C(=O)NCCC(=O)N[C@@H](CCC(=O)O)C(=O)NCC(=O)N[C@H](C(=O)N[C@@H](Cc1ccccc1)C(=O)N[C@H](C(=O)N[C@@H](CO)C(=O)N[C@@H](CC(=O)O)C(=O)N[C@@H](Cc1ccc(O)cc1)C(=O)N[C@@H](CO)C(=O)N[C@H](C(=O)NC(C)(C)C(=O)N[C@@H](CC(C)C)C(=O)N[C@@H](CC(=O)O)C(=O)N[C@@H](CCCCN)C(=O)N[C@H](C(=O)N[C@@H](C)C(=O)N[C@@H](CCC(N)=O)C(=O)N[C@@H](CCCCNC(=O)COCCOCCNC(=O)COCCOCCNC(=O)CC[C@H](NC(=O)CCCCCCCCCCCCCCCCCCC(=O)O)C(=O)O)C(=O)N[C@@H](C)C(=O)N[C@@H](Cc1ccccc1)C(=O)N[C@H](C(=O)N[C@@H](CCC(N)=O)C(=O)N[C@@H](Cc1c[nH]c2ccccc12)C(=O)N[C@@H](CC(C)C)C(=O)N[C@H](C(=O)N[C@@H](C)C(=O)NCC(=O)NCC(=O)N1CCC[C@H]1C(=O)N[C@@H](CO)C(=O)N[C@@H](CO)C(=O)NCC(=O)N[C@@H](C)C(=O)N1CCC[C@H]1C(=O)N1CCC[C@H]1C(=O)N1CCC[C@H]1C(=O)N[C@@H](CO)C(N)=O)[C@@H](C)CC)C(C)C)[C@@H](C)CC)[C@@H](C)CC)[C@@H](C)O)[C@@H](C)O` [Compound 281] ({NHPr-CO}-[Aib][βAla]EGTFTSDYSI[Aib]LDKIAQK([AEEA-AEEA-γGlu-C20 diacid])AFVQWLIAGGPSSGAPPPS-NH2), the EC50 at GLP-1 receptor [1] was greater than 1000 nM; at GIP receptor [2], greater than 1000 nM; on GIP receptor [3], 1 to 10 nM; on GLP-1 receptor [4], 0.1 to 1 nM. For the same molecule, the results for the Emax on GIP receptor [3] and on GLP-1 receptor [4] were 108% and 95%, respectively.
As for `CC[C@H](C)[C@H](NC(=O)[C@H](CC(C)C)NC(=O)[C@H](Cc1c[nH]c2ccccc12)NC(=O)[C@H](CCC(N)=O)NC(=O)[C@@H](NC(=O)[C@H](Cc1ccccc1)NC(=O)[C@H](C)NC(=O)[C@H](CCCCNC(=O)COCCOCCNC(=O)COCCOCCNC(=O)CC[C@H](NC(=O)CCCCCCCCCCCCCCCCCCC(=O)O)C(=O)O)NC(=O)[C@H](CCC(N)=O)NC(=O)[C@H](C)NC(=O)[C@@H](NC(=O)[C@H](CCCCN)NC(=O)[C@H](CC(=O)O)NC(=O)[C@H](CC(C)C)NC(=O)C(C)(C)NC(=O)[C@@H](NC(=O)[C@H](CO)NC(=O)[C@H](Cc1ccc(O)cc1)NC(=O)[C@H](CC(=O)O)NC(=O)[C@H](CO)NC(=O)[C@@H](NC(=O)[C@H](Cc1ccccc1)NC(=O)[C@@H](NC(=O)CNC(=O)[C@H](CCC(=O)O)NC(=O)CCNC(=O)C(C)(C)c1cccc(F)c1F)[C@@H](C)O)[C@@H](C)O)[C@@H](C)CC)[C@@H](C)CC)C(C)C)C(=O)N[C@@H](C)C(=O)NCC(=O)NCC(=O)N1CCC[C@H]1C(=O)N[C@@H](CO)C(=O)N[C@@H](CO)C(=O)NCC(=O)N[C@@H](C)C(=O)N1CCC[C@H]1C(=O)N1CCC[C@H]1C(=O)N1CCC[C@H]1C(=O)N[C@@H](CO)C(N)=O` [Compound 147] ({X13-βAla}-EGTFTSDYSI[Aib]LDKIAQK([AEEA-AEEA-γGlu-C20 diacid])AFVQWLIAGGPSSGAPPPS-NH2), the EC50 on GLP-1 receptor [1] was greater than 1000 nM; at GIP receptor [2], less than 1000 nM; on GIP receptor [3] it was 0.1 to 1 nM; at GLP-1 receptor [4] it was 0.1 to 1 nM. The maximal response (Emax) on GIP receptor [3] stood at 102%; on GLP-1 receptor [4], 99%.
In the case of `CC[C@H](C)[C@H](NC(=O)[C@H](CO)NC(=O)[C@H](Cc1ccc(O)cc1)NC(=O)[C@H](CC(=O)O)NC(=O)[C@H](CO)NC(=O)[C@@H](NC(=O)[C@H](Cc1ccccc1)NC(=O)[C@@H](NC(=O)CNC(=O)[C@H](CCC(=O)O)NC(=O)CCNC(=O)C1(c2ccc(F)cc2F)CCCC1)[C@@H](C)O)[C@@H](C)O)C(=O)N[C@@H](Cc1ccc(O)cc1)C(=O)N[C@@H](CC(C)C)C(=O)N[C@@H](CC(=O)O)C(=O)N[C@@H](CCCCN)C(=O)N[C@@H](CCC(N)=O)C(=O)N[C@@H](C)C(=O)N[C@@H](C)C(=O)NC(C)(C)C(=O)N[C@@H](CCC(=O)O)C(=O)N[C@@H](Cc1ccccc1)C(=O)N[C@H](C(=O)N[C@@H](CC(N)=O)C(=O)N[C@@H](Cc1c[nH]c2ccccc12)C(=O)N[C@@H](CC(C)C)C(=O)N[C@@H](CC(C)C)C(=O)N[C@@H](C)C(=O)NCC(=O)NCC(=O)N1CCC[C@H]1C(=O)N[C@@H](CO)C(=O)N[C@@H](CO)C(=O)NCC(=O)N[C@@H](C)C(=O)N1CCC[C@H]1C(=O)N1CCC[C@H]1C(=O)N1CCC[C@H]1C(=O)N[C@@H](CO)C(=O)N[C@@H](CCCCNC(=O)COCCOCCNC(=O)COCCOCCNC(=O)CC[C@H](NC(=O)CCCCCCCCCCCCCCCCCCC(=O)O)C(=O)O)C(N)=O)C(C)C` [Compound 145], the EC50 is greater than 1000 nM at GLP-1 receptor [1], greater than 1000 nM at GIP receptor [2], 1 to 10 nM on GIP receptor [3] and 1 to 10 nM at GLP-1 receptor [4]. Also, the Emax was determined as 102% on GIP receptor [3] and 97% at GLP-1 receptor [4].
As for `CC[C@H](C)[C@H](NC(=O)[C@H](CC(C)C)NC(=O)[C@H](Cc1c[nH]c2ccccc12)NC(=O)[C@H](CCC(N)=O)NC(=O)[C@@H](NC(=O)[C@H](Cc1ccccc1)NC(=O)[C@H](C)NC(=O)[C@H](CCCCNC(=O)COCCOCCNC(=O)COCCOCCNC(=O)CC[C@H](NC(=O)CCCCCCCCCCCCCCCCCCC(=O)O)C(=O)O)NC(=O)[C@H](CCC(N)=O)NC(=O)[C@H](C)NC(=O)[C@@H](NC(=O)[C@H](CCCCN)NC(=O)[C@H](CC(=O)O)NC(=O)[C@H](CC(C)C)NC(=O)C(C)(C)NC(=O)[C@@H](NC(=O)[C@H](CO)NC(=O)[C@H](Cc1ccc(O)cc1)NC(=O)[C@H](CC(=O)O)NC(=O)[C@H](CO)NC(=O)[C@@H](NC(=O)[C@H](Cc1ccccc1)NC(=O)[C@@H](NC(=O)CNC(=O)[C@H](CCC(=O)O)NC(=O)[C@H](CNC(=O)C(C)(C)c1cc(F)cc(C#N)c1)OC)[C@@H](C)O)[C@@H](C)O)[C@@H](C)CC)[C@@H](C)CC)C(C)C)C(=O)N[C@@H](C)C(=O)NCC(=O)NCC(=O)N1CCC[C@H]1C(=O)N[C@@H](CO)C(=O)N[C@@H](CO)C(=O)NCC(=O)N[C@@H](C)C(=O)N1CCC[C@H]1C(=O)N1CCC[C@H]1C(=O)N1CCC[C@H]1C(=O)N[C@@H](CO)C(N)=O` [Compound 194] ({Isobutyryl(2-(3-CN-5-F-Ph))}-[X57]EGTFTSDYSI[Aib]LDKIAQK([AEEA-AEEA-γGlu-C20 diacid])AFVQWLIAGGPSSGAPPPS-NH2), the EC50 at GLP-1 receptor [1] is greater than 1000 nM; on GIP receptor [2] it was greater than 1000 nM; at GIP receptor [3], 10 to 100 nM; on GLP-1 receptor [4], 10 to 100 nM. For the same molecule, the Emax was 78% at GIP receptor [3] and 80% at GLP-1 receptor [4].

For the origin of these results see patent publication US12281149B2, “Modulators of G-protein coupled receptors” (priority 2021, dated 2025).
